Test results from article PMC9120017, “Inhibition mechanism of the chloride channel TMEM16A by the pore blocker 1PBC” (Nature Communications, 2022).
Where two headings read alike, the source gives them in different places.

Target: T1, mouse TMEM16A mutant I512A (Mus musculus, UniProt Q8BHY3, I512A)
T1 construct: expressed in transfected cells; host or cells: HEK293T
T1 sequence (Q8BHY3 1-960 I512A): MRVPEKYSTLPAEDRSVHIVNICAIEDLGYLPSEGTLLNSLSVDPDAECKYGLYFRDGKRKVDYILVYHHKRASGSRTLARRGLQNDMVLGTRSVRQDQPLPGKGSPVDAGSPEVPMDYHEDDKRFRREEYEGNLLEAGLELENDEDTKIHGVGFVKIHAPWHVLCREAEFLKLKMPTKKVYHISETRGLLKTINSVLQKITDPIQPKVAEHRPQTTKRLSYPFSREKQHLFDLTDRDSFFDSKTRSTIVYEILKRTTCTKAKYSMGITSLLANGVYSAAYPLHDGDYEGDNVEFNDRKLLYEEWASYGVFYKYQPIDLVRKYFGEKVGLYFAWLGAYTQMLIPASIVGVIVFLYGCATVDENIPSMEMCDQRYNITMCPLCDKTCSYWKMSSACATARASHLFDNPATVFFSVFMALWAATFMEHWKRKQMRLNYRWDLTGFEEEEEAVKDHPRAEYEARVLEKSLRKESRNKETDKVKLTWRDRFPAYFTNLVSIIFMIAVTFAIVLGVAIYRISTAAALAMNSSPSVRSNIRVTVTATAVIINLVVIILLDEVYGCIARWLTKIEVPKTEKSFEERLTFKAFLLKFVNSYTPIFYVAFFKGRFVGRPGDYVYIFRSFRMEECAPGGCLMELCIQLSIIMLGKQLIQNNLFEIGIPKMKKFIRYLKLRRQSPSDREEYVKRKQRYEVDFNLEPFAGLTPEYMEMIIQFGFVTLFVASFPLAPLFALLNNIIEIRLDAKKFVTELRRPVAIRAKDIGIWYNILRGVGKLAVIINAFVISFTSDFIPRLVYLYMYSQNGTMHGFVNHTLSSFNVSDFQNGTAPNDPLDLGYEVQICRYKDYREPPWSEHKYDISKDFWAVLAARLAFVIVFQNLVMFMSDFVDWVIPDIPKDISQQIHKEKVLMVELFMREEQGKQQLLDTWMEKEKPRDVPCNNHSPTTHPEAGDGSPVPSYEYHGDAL
Experiment: Inside-out patch recording of 1PBC block, mutant I512A
Format: cell-based
Conditions: for remaining activity at 100 µM: 100 µM 1PBC
Method: HEK293T cells (ATCC CRL-1573) were maintained in Dulbecco’s modified Eagle’s medium (DMEM; Sigma-Aldrich) supplemented with 10 U ml^−1 penicillin, 0.1 mg ml^−1 streptomycin (Sigma-Aldrich), 2 mM L-glutamine (Sigma-Aldrich), and 10% FBS (Sigma-Aldrich) in a humidified atmosphere containing 5% CO2 at 37 °C. HEK293S GnTI^− cells (ATCC CRL-3022) were maintained in HyClone HyCell TransFx-H medium (GE Healthcare) supplemented with 10 U ml^−1 penicillin, 0.1 mg ml^−1 streptomycin, 4 mM L-glutamine, 0.15% poloxamer 188 (Sigma-Aldrich), and 1% FBS in an atmosphere containing 5% CO2 at 185 rpm at 37 °C. The ac splice variant of mouse TMEM16A (UniProt ID: Q8BHY3), mouse TMEM16B (UniProt ID: Q8CFW1), or mouse TMEM16F (UniProt ID: Q6P9J9) bearing a 3C cleavage site, a Venus YFP, a Myc tag, and a Streptavidin-binding peptide (SBP) downstream of the open reading frame in a modified pcDNA3.1 vector (Invitrogen) were used as described previously[21],[31]. Mutations were introduced using a modified QuikChange method[58] and were verified by sequencing.
HEK293T cells were transfected with 3–4 μg DNA per 6 cm Petri dish using the calcium phosphate co-precipitation method and were used within 24–96 h after transfection. Recordings were performed on inside-out patches excised from HEK293T cells expressing the construct of interest. Patch pipettes were pulled from borosilicate glass capillaries (O.D. 1.5 mm, I.D. 0.86 mm, Sutter Instrument) and were fire-polished with a microforge (Narishige) before use. Pipette resistance was typically 3–8 MΩ when filled with the recording solutions detailed below. Seal resistance was typically 4 GΩ or higher. Voltage-clamp recordings were made using Axopatch 200B, Digidata 1550, and Clampex 10.7 (Molecular Devices). Analog signals were filtered with the in-built 4-pole Bessel filter at 10 kHz and were digitized at 20 kHz. Solution exchange was achieved using a gravity-fed system through a theta glass pipette mounted on an ultra-fast piezo-driven stepper (Siskiyou). […] All recordings were performed at 20 °C.
A symmetrical ionic condition was used throughout. Stock solution with Ca^2+-EGTA contained 150 mM NaCl, 5.99 mM Ca(OH)2, 5 mM EGTA, and 10 mM HEPES at pH 7.40. Stock solution with EGTA contained 150 mM NaCl, 5 mM EGTA, and 10 mM HEPES at pH 7.40. Free Ca^2+ concentrations were adjusted by mixing the stock solutions at the required ratios calculated using the WEBMAXC program (http://web.stanford.edu/~cpatton/webmaxcS.htm). Patch pipettes were filled with the stock solution with Ca^2+-EGTA, which has a free Ca^2+ concentration of 1 mM. 1PBC (ChemBridge) stock was reconstituted in anhydrous DMSO (Sigma-Aldrich) at 100 mM and stored at −20 °C. Working solutions with 1PBC were prepared by serial dilution. Unless otherwise stated, experiments were performed at a saturating Ca^2+ concentration as shown in Supplementary Table 1 and the primary data were corrected for current rundown as described previously[21],[25].
Concentration-response relations, obtained from the ratio of the I-V plots before and after the application of the blocker, were fitted to the Hill equation,1 I/Imax=1/1+IC50/[blocker]^h where I/Imax is the normalized current responses, IC50 defines the concentration at which inhibition is at its half-maximum, and h is the Hill coefficient.

SMILES: N#Cc1c(C(F)(F)F)cc(O)n2c1nc1ccccc12 [1PBC]
- IC50 (0 mV, 2 µM Ca2+): 30.7 µM
- remaining activity at 3 µM (3 µM 1PBC, +80 mV, saturating Ca2+ (2 µM), read-out: I/Imax): 84.4%
- remaining activity at 3 µM (3 µM 1PBC, -80 mV, saturating Ca2+ (2 µM), read-out: I/Imax): 94.5%
- remaining activity at 10 µM (10 µM 1PBC, +80 mV, saturating Ca2+ (2 µM), read-out: I/Imax): 63.3%
- remaining activity at 10 µM (10 µM 1PBC, -80 mV, saturating Ca2+ (2 µM), read-out: I/Imax): 87.2%
- remaining activity at 30 µM (30 µM 1PBC, +80 mV, saturating Ca2+ (2 µM), read-out: I/Imax): 36.4%
- remaining activity at 30 µM (30 µM 1PBC, -80 mV, saturating Ca2+ (2 µM), read-out: I/Imax): 65.6%
- remaining activity at 100 µM (+80 mV, saturating Ca2+ (2 µM), read-out: I/Imax): 14%
- remaining activity at 100 µM (-80 mV, saturating Ca2+ (2 µM), read-out: I/Imax): 36%
- remaining activity at 3 µM (1PBC 3, 0 mV, read-out: fraction of unblocked current): 89.8%
- remaining activity at 3 µM (1PBC 3, 20 mV, read-out: fraction of unblocked current): 88.3%
- remaining activity at 3 µM (1PBC 3, 40 mV, read-out: fraction of unblocked current): 86.4%
- remaining activity at 3 µM (1PBC 3, 60 mV, read-out: fraction of unblocked current): 85.9%
- remaining activity at 3 µM (1PBC 3, 80 mV, read-out: fraction of unblocked current): 84.4%
- remaining activity at 3 µM (1PBC 3, 100 mV, read-out: fraction of unblocked current): 83.9%
- remaining activity at 3 µM (1PBC 3, 120 mV, read-out: fraction of unblocked current): 84.8%
- remaining activity at 3 µM (1PBC 3, 140 mV, read-out: fraction of unblocked current): 86.4%
- remaining activity at 3 µM (1PBC 3, -20 mV, read-out: fraction of unblocked current): 91.3%
- remaining activity at 3 µM (1PBC 3, -40 mV, read-out: fraction of unblocked current): 92.6%
- remaining activity at 3 µM (1PBC 3, -60 mV, read-out: fraction of unblocked current): 93.3%
- remaining activity at 3 µM (1PBC 3, -80 mV, read-out: fraction of unblocked current): 94.5%
- remaining activity at 3 µM (1PBC 3, -100 mV, read-out: fraction of unblocked current): 94.8%
- remaining activity at 3 µM (1PBC 3, -120 mV, read-out: fraction of unblocked current): 95.1%
- remaining activity at 3 µM (1PBC 3, -140 mV, read-out: fraction of unblocked current): 96%
- remaining activity at 10 µM (1PBC 10, 0 mV, read-out: fraction of unblocked current): 76.6%
- remaining activity at 10 µM (1PBC 10, 20 mV, read-out: fraction of unblocked current): 72.7%
- remaining activity at 10 µM (1PBC 10, 40 mV, read-out: fraction of unblocked current): 68.9%
- remaining activity at 10 µM (1PBC 10, 60 mV, read-out: fraction of unblocked current): 65.9%
- remaining activity at 10 µM (1PBC 10, 80 mV, read-out: fraction of unblocked current): 63.3%
- remaining activity at 10 µM (1PBC 10, 100 mV, read-out: fraction of unblocked current): 61.7%
- remaining activity at 10 µM (1PBC 10, 120 mV, read-out: fraction of unblocked current): 61.7%
- remaining activity at 10 µM (1PBC 10, 140 mV, read-out: fraction of unblocked current): 63.1%
- remaining activity at 10 µM (1PBC 10, -20 mV, read-out: fraction of unblocked current): 80.4%
- remaining activity at 10 µM (1PBC 10, -40 mV, read-out: fraction of unblocked current): 82.9%
- remaining activity at 10 µM (1PBC 10, -60 mV, read-out: fraction of unblocked current): 85.2%
- remaining activity at 10 µM (1PBC 10, -80 mV, read-out: fraction of unblocked current): 87.2%
- remaining activity at 10 µM (1PBC 10, -100 mV, read-out: fraction of unblocked current): 88.6%
- remaining activity at 10 µM (1PBC 10, -120 mV, read-out: fraction of unblocked current): 89%
- remaining activity at 10 µM (1PBC 10, -140 mV, read-out: fraction of unblocked current): 89.6%
- remaining activity at 30 µM (1PBC 30, 0 mV, read-out: fraction of unblocked current): 50.3%
- remaining activity at 30 µM (1PBC 30, 20 mV, read-out: fraction of unblocked current): 46.3%
- remaining activity at 30 µM (1PBC 30, 40 mV, read-out: fraction of unblocked current): 42.2%
- remaining activity at 30 µM (1PBC 30, 60 mV, read-out: fraction of unblocked current): 39%
- remaining activity at 30 µM (1PBC 30, 80 mV, read-out: fraction of unblocked current): 36.4%
- remaining activity at 30 µM (1PBC 30, 100 mV, read-out: fraction of unblocked current): 34.7%
- remaining activity at 30 µM (1PBC 30, 120 mV, read-out: fraction of unblocked current): 34.2%
- remaining activity at 30 µM (1PBC 30, 140 mV, read-out: fraction of unblocked current): 35.1%
- remaining activity at 30 µM (1PBC 30, -20 mV, read-out: fraction of unblocked current): 54.2%
- remaining activity at 30 µM (1PBC 30, -40 mV, read-out: fraction of unblocked current): 58.4%
